Results: ChEMBL document CHEMBL4311962, “Benzofuran-isatin hybrids and their in vitro anti-mycobacterial activities against multi-drug resistant Mycobacterium tuberculosis” (Eur J Med Chem, 2019)

Tests used:
[1] = Cytotoxicity against CHO cells assessed as reduction in cell viability incubated for 72 hrs by MTT assay; type: cell-based, Cricetulus griseus; conditions: chinese hamster
[2] = Metabolic stability in SPF ICR mouse liver microsomes assessed as half life […]; type: ADME, Microsome
[3] = Cmax in SPF ICR mouse at 25 mg/kg, po administered as single dose measured for 0.25 to 24 hrs; type: ADME, organism-based; parameters: dose 25 mg/kg, route oral; conditions: in vivo
[4] = Elimination half life in SPF ICR mouse at 25 mg/kg, po administered as single dose measured for 0.25 to 24 hrs; type: ADME, organism-based; conditions: in vivo, read-out: beta t1/2 (converted)
[5] = Tmax in SPF ICR mouse at 25 mg/kg, po administered as single dose measured for 0.25 to 24 hrs; type: ADME, organism-based; conditions: in vivo
[6] = AUC (0 to infinity) in SPF ICR mouse at 25 mg/kg, po administered as single dose measured for 0.25 to 24 hrs; type: ADME, organism-based; parameters: dose 25 mg/kg, time infinity, route oral; conditions: in vivo

Question: Which CC50 at 72 h [1] does the source give for `CCOC(=O)c1c(-c2ccccc2)oc2ccc(OCCCN3C(=O)C(=O)c4ccccc43)cc12` here?
Answer: 256 µM

Question: Which CC50 at 72 h [1] does the source give for `CCOC(=O)c1c(-c2ccc(F)cc2)oc2ccc(OCCN3C(=O)C(=O)c4ccccc43)cc12` here?
Answer: 128 µM

Question: For `CCOC(=O)c1c(-c2ccc(F)cc2)oc2ccc(OCCCCCCN3C(=O)/C(=N\O)c4cc(OC)ccc43)cc12`, which CC50 at 72 h [1] is on record?
Answer: 512 µM

Question: Which CC50 at 72 h [1] does the source give for `CCOC(=O)c1c(-c2ccc(F)cc2)oc2ccc(OCCN3C(=O)C(=O)c4cc(F)ccc43)cc12` here?
Answer: 64 µM

Question: For `CCO/N=C1\C(=O)N(CCCCCCOc2ccc3oc(-c4ccc(F)cc4)c(C(=O)OCC)c3c2)c2ccc(OC)cc21`, which CC50 at 72 h [1] is on record?
Answer: 256 µM

Question: Which CC50 at 72 h [1] does the source give for `CCOC(=O)c1c(-c2ccc(OC)cc2)oc2ccc(OCCCN3C(=O)C(=O)c4cc(F)ccc43)cc12` here?
Answer: 64 µM

Question: For `CCOC(=O)c1c(-c2ccc(OC)cc2)oc2ccc(OCCCCN3C(=O)C(=O)c4ccccc43)cc12`, which CC50 at 72 h [1] is on record?
Answer: 256 µM

Question: For `CNC(=O)c1c(-c2ccc(O)cc2)oc2ccc(O)c(CN3CCCCC3)c12`, which CC50 at 72 h [1] is on record?
Answer: > 1020 µM

Question: And the half-life [2]?
Answer: > 1 h

Question: Which CC50 at 72 h [1] does the source give for `CCOC(=O)c1c(-c2ccccc2)oc2ccc(OCCN3C(=O)C(=O)c4cc(F)ccc43)cc12` here?
Answer: 64 µM

Question: Which CC50 at 72 h [1] does the source give for `CO[C@H]1/C=C/O[C@@]2(C)Oc3c(C)c(O)c4c(O)c(c(/C=N/N5CCN(C)CC5)c(O)c4c3C2=O)NC(=O)/C(C)=C\C=C\[C@H](C)[C@H](O)[C@@H](C)[C@@H](O)[C@@H](C)[C@H](OC(C)=O)[C@@H]1C` [RIFAMPIN] here?
Answer: 512 µM

Question: For `NNC(=O)c1ccncc1` [ISONIAZID], which CC50 at 72 h [1] is on record?
Answer: 256 µM

Question: With `CCOC(=O)c1c(-c2ccc(OC)cc2)oc2ccc(OCCCCCN3C(=O)C(=O)c4ccccc43)cc12` as the compound, how does the CC50 at 72 h [1] read?
Answer: 128 µM

Question: With `CCOC(=O)c1c(-c2ccc(F)cc2)oc2ccc(OCCCCCCN3C(=O)/C(=N/OC)c4ccccc43)cc12` as the compound, how does the CC50 at 72 h [1] read?
Answer: 128 µM

Question: For `CCOC(=O)c1c(-c2ccccc2)oc2ccc(OCCCCCCN3C(=O)C(=O)c4ccccc43)cc12`, which CC50 at 72 h [1] is on record?
Answer: 128 µM

Question: For `CCOC(=O)c1c(-c2ccc(F)cc2)oc2ccc(OCCCCCCN3C(=O)C(=O)c4cc(OC)ccc43)cc12`, which CC50 at 72 h [1] is on record?
Answer: 256 µM

Question: Which results are given for `CCOC(=O)c1c(-c2ccc(OC)cc2)oc2ccc(OCCCCCCN3C(=O)/C(=N/NC(N)=S)c4cc(F)ccc43)cc12`?
Answer: CC50 at 72 h [1]: 128 µM; half-life [2]: 0.29 h; Cmax [3]: 2540 ng/mL; half-life [4]: 2.32 h; Tmax [5]: 1.81 h; AUC(0-inf) [6]: 3800 ng·h/mL

Question: Which CC50 at 72 h [1] does the source give for `CCOC(=O)c1c(-c2ccccc2)oc2ccc(OCCCN3C(=O)/C(=N/O)c4cc(OC)ccc43)cc12` here?
Answer: 512 µM

Question: Which CC50 at 72 h [1] does the source give for `CCOC(=O)c1c(-c2ccc(F)cc2)oc2ccc(OCCN3C(=O)C(=O)c4cc(OC)ccc43)cc12` here?
Answer: 512 µM

Question: For `CCOC(=O)c1c(-c2ccc(F)cc2)oc2ccc(OCCCN3C(=O)C(=O)c4ccccc43)cc12`, which CC50 at 72 h [1] is on record?
Answer: 256 µM

Question: With `CCOC(=O)c1c(-c2ccc(F)cc2)oc2ccc(OCCCN3C(=O)/C(=N/O)c4ccccc43)cc12` as the compound, how does the CC50 at 72 h [1] read?
Answer: 256 µM

Question: Which CC50 at 72 h [1] does the source give for `CCOC(=O)c1c(-c2ccccc2)oc2ccc(OCCCN3C(=O)/C(=N/O)c4ccccc43)cc12` here?
Answer: 512 µM

Question: With `CCOC(=O)c1c(-c2ccccc2)oc2ccc(OCCCN3C(=O)C(=O)c4cc(OC)ccc43)cc12` as the compound, how does the CC50 at 72 h [1] read?
Answer: 512 µM
